Measurements: US11186591B2, “Difluoromethyl-aminopyridines and difluoromethyl-aminopyrimidines” (TORQUR AG, priority 2014, dated 2021)

Legend:
[1] = system: pPKB S473 in A2058 cells; experiment: In-cell Western blot, pPKB S473; assay type: cell-based; conditions: Homo sapiens, 1 hour treatment, signal normalized to α-tubulin
Description: (§1) Cells are fixed with 4% paraformaldehyde for 30 minutes at room temperature, washed 2 times with 1% BSA in PBS, permeabilized with 0.1% Triton X-100 in PBS/1% BSA for 30 minutes at room temperature and blocked with 5% goat serum in PBS/1% BSA/0.1% Triton X-100 for 30 minutes at room temperature. […] Cells are washed 3 times 5 minutes with PBS/1% BSA/0.1% triton and plate scanned with the Odyssey Infrared Scanning system using both 700 and 800 nm channels. […] To correct for background staining in the data analysis wells are treated only with secondary antibodies.
(§2) For data analysis the mean background signal from channel 700 nm and 800 nm are subtracted from each signal in channel 700 nm and 800 nm, respectively.
(§3) IC50 values of each compound are determined by plotting the normalized pPBK S473 and pS6 S235/S236 signals, respectively, versus the compound concentrations (in logarithmic scale) and then by fitting a sigmoidal dose-response curve with variable slope to the data using GraphPad™ Prism.

[2] = system: pS6 S235/S236 in A2058 cells; experiment: In-cell Western blot, pS6 S235/S236; assay type: cell-based; conditions: Homo sapiens, 1 hour treatment, signal normalized to α-tubulin
Description: as §1, §2, §3

[3] = target: P110α (Homo sapiens, UniProt P42336); experiment: P110α IC50 (Table 12, comparative biological activities); assay type: biochemical
Sequence of P110α (P42336 whole entry, species assumed): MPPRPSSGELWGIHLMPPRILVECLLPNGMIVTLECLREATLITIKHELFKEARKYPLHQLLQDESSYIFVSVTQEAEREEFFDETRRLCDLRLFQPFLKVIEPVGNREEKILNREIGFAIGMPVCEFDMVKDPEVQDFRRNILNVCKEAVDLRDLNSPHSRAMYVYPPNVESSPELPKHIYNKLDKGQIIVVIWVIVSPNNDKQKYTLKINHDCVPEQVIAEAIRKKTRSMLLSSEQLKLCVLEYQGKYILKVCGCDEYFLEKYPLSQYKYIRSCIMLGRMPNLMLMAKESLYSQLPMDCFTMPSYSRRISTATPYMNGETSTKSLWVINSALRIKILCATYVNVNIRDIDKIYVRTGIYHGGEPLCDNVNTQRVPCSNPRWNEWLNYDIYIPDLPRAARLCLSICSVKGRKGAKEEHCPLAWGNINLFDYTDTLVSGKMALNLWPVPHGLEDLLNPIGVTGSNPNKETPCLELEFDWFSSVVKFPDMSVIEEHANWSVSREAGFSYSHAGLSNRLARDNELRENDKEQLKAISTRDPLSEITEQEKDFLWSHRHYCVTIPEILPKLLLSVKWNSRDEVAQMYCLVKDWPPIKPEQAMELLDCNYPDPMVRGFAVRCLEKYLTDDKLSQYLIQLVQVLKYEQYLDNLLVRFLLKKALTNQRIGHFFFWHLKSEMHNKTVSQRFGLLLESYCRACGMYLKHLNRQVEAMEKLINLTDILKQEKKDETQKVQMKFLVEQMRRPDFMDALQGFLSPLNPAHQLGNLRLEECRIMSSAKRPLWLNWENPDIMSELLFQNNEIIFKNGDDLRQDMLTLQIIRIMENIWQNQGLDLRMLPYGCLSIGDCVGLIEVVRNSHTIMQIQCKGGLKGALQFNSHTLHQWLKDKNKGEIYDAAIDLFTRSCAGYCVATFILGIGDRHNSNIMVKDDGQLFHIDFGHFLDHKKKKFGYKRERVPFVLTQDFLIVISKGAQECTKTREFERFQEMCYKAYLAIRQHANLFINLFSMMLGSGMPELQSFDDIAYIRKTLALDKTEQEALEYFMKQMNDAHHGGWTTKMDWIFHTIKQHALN
Sequence of P110α (P27986 whole entry partner, species assumed): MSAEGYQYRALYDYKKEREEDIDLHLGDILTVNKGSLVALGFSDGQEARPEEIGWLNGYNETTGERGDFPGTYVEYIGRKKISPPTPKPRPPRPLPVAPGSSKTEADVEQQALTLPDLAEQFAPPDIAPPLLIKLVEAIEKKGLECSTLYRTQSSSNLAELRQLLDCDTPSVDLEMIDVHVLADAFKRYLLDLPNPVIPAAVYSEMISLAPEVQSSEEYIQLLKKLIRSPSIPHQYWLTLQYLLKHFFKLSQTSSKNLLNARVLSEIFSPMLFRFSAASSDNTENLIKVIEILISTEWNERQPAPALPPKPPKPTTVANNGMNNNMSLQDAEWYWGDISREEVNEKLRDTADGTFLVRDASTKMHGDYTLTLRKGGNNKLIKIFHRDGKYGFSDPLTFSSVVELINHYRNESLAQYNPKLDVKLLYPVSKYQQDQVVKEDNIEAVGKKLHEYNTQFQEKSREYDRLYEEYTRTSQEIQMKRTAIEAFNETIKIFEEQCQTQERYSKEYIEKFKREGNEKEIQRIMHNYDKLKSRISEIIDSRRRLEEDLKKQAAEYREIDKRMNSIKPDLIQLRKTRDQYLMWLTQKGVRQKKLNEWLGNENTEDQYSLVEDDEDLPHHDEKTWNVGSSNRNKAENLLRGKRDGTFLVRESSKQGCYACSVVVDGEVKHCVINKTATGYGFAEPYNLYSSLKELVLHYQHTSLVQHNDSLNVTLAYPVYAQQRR

Question: Nc1cc(C(F)(F)F)c(-c2nc(N3CCOCC3)nc(N3CCOCC3)n2)cn1 was tested. Which IC50 ([1]; A2058, 1 h) did it give?
Answer: 149 nM

Question: What about the IC50 ([2]; A2058, 1 h) of the same compound?
Answer: 340 nM

Question: With C[C@H]1COCCN1c1nc(-c2cnc(N)cc2C(F)F)nc(N2CCOC[C@@H]2C)n1 as the compound, how does the IC50 ([1]; A2058, 1 h) read?
Answer: 155 nM

Question: And the IC50 ([2]; A2058, 1 h)?
Answer: 215 nM

Question: Which IC50 ([1]; A2058, 1 h) does the source give for C[C@H]1COCCN1c1nc(-c2cnc(N)cc2C(F)(F)F)nc(N2CCOC[C@@H]2C)n1 here?
Answer: 255 nM

Question: What about the IC50 ([2]; A2058, 1 h) of the same compound?
Answer: 433 nM

Question: With C[C@H]1COCCN1c1nc(-c2cnc(N)nc2C(F)F)nc(N2CCOC[C@@H]2C)n1 as the compound, how does the IC50 ([2]; A2058, 1 h) read?
Answer: 97 nM

Question: How did the IC50 ([1]; A2058, 1 h) turn out when C[C@H]1COCCN1c1nc(-c2cnc(N)nc2C(F)(F)F)nc(N2CCOC[C@@H]2C)n1 was run?
Answer: 118 nM

Question: What about the IC50 ([2]; A2058, 1 h) of the same compound?
Answer: 224 nM

Question: Which IC50 ([2]; A2058, 1 h) does the source give for Nc1ncc(-c2nc(N3CCOCC3)cc(N3CCOCC3)n2)c(C(F)F)n1 here?
Answer: 147 nM

Question: With C[C@H]1COCCN1c1cc(-c2cnc(N)nc2C(F)F)nc(N2CCOCC2)n1 as the compound, how does the IC50 ([1]; A2058, 1 h) read?
Answer: 77 nM

Question: And the IC50 ([2]; A2058, 1 h)?
Answer: 146 nM

Question: Which IC50 ([1]; A2058, 1 h) does the source give for C[C@H]1OC(=O)N(c2nc(-c3cnc(N)nc3C(F)F)nc(N3CCOCC3)n2)[C@H]1CO here?
Answer: 100 nM

Question: What about the IC50 [3] of the same compound?
Answer: 161 nM

Question: Nc1cc(C(F)F)c(-c2nc(N3CCOCC3)nc(N3CCOCC3=O)n2)cn1 [Example 35, 4-[4-[6-amino-4-(difluoromethyl)-3-pyridyl]-6-morpholino-1,3,5-triazin-2-yl]morpholin-3-one] was tested. Which IC50 ([1]; A2058, 1 h) did it give?
Answer: 207 nM

Question: What about the IC50 ([2]; A2058, 1 h) of the same compound?
Answer: 229 nM

Question: With Nc1ncc(-c2nc(N3CCOCC3)nc(N3CCOCC3=O)n2)c(C(F)F)n1 [Example 36, 4-[4-[2-amino-4-(difluoromethyl)pyrimidin-5-yl]-6-morpholino-1,3,5-triazin-2-yl]morpholin-3-one] as the compound, how does the IC50 ([1]; A2058, 1 h) read?
Answer: 99 nM

Question: What about the IC50 ([2]; A2058, 1 h) of the same compound?
Answer: 153 nM

Question: Which IC50 [1] does the source give for C[C@@H]1COCCN1c1nc(-c2cnc(N)cc2C(F)F)nc(-c2cnc(N)cc2C(F)F)n1 [Example 43, 5-[4-[6-amino-4-(difluoromethyl)-3-pyridyl]-6-[(3R)-3-methylmorpholin-4-yl]-1,3,5-triazin-2-yl]-4-(difluoromethyl)pyridin-2-amine] here?
Answer: 383 nM

Question: And the IC50 [2]?
Answer: 154 nM

Question: Which IC50 ([1]; A2058, 1 h) does the source give for Nc1cc(C(F)(F)F)c(-c2nc(N3CCNCC3)nc(N3CCOCC3)n2)cn1 [reference compound] here?
Answer: 302 nM

Question: And the IC50 ([2]; A2058, 1 h)?
Answer: 743 nM

Question: What does the source list for Nc1ncc(-c2nc(N3CCNCC3)nc(N3CCOCC3)n2)c(C(F)(F)F)n1 [reference compound]?
Answer: IC50 ([1]; A2058, 1 h): 116 nM; IC50 ([2]; A2058, 1 h): 416 nM

Question: Nc1cc(C(F)(F)F)c(-c2nc(N3CCOCC3)nc(N3CCSCC3)n2)cn1 [reference compound] was tested. Which IC50 ([1]; A2058, 1 h) did it give?
Answer: 311 nM

Question: What about the IC50 ([2]; A2058, 1 h) of the same compound?
Answer: 559 nM

Question: Which IC50 ([1]; A2058, 1 h) does the source give for Nc1ncc(-c2nc(N3CCOCC3)nc(N3CCSCC3)n2)c(C(F)(F)F)n1 [reference compound] here?
Answer: 343 nM

Question: And the IC50 ([2]; A2058, 1 h)?
Answer: 996 nM

Question: Which results are given for C[C@H]1OC(=O)N(c2nc(-c3cnc(N)nc3C(F)(F)F)nc(N3CCOCC3)n2)[C@H]1CO [reference compound]?
Answer: IC50 ([1]; A2058, 1 h): 689 nM; IC50 [3]: 1860 nM
